Laboratory results reported in publication PMC9283466, “In silico identification of two peptides with antibacterial activity against multidrug-resistant Staphylococcus aureus” (NPJ Biofilms and Microbiomes, 2022).
In brackets after ≈: the same amount, converted by molar mass. Bridge positions count the residues as written; N and C are the ends. Peptide text beside a SMILES is read from it.

How the values were obtained:
[1] = tested on: A. baumannii (IMI, MER resistant; strain ID not given); assay: microbe, parasite or virus in culture; type: cell-based, Acinetobacter baumannii; settings: MER resistant, no strain ID printed
Method: (§1) To determine the antimicrobial activity of the new antimicrobial peptides, HG2 and HG4, their minimum inhibitory concentrations (MICs) were determined by broth microdilution method[51] in cation adjusted Mueller Hinton broth (MHB) following the International Organisation for Standardisation (ISO) 20776-1 standard for MIC testing using a final bacterial inoculum of 5 × 10^5 CFU/ml[52]. […] The peptides dissolved in sterile distilled water were added to bacteria culture and incubated overnight at appropriate conditions. The MICs of the peptides and comparator antibiotics were recorded after 18–24 h. The minimum bactericidal concentrations (MBCs) were also determined and were taken as the lowest concentration of the antimicrobial that prevented the growth of bacterial cells after the subculture of cells (from MIC treatment) onto antibiotic-free media.

A. baumannii 515722 = assay: microbe, parasite or virus in culture; type: cell-based, Acinetobacter baumannii; settings: 515722
Method: as §1

A. baumannii 515785 = assay: microbe, parasite or virus in culture; type: cell-based, Acinetobacter baumannii; settings: 515785
Method: as §1

A. baumannii 515908 = assay: microbe, parasite or virus in culture; type: cell-based, Acinetobacter baumannii; settings: 515908
Method: as §1

MRSA USA300 cells = assay: Time-kill kinetics; type: cell-based, Staphylococcus aureus; settings: 3x MIC; for reduction in viable cells (time-kill): within the first 10 min, logarithmic-phase MRSA USA300; for time to complete cell death: no recovery observed after 24 h
Method: The bactericidal activity of HG2, HG4 and comparator antimicrobial compounds was assessed using exponential-phase cultures[14] of MRSA USA300 grown in MHB (1 × 10^6-8 CFU/ml). […] Samples were taken at different time points, serially diluted and inoculated onto MH agar plates using the spread plate technique. After overnight incubation, the colony-forming units per millilitre of cell culture (CFU/ml) was calculated. Experiments were performed in quadruplicates.

MRSA USA300 biofilms = assay: Anti-biofilm activity, 96-well biofilm model (crystal violet); type: cell-based, Staphylococcus aureus; settings: established MRSA USA300 biofilms; for reduction in biofilm formation: sub-MIC (0.25x and 0.5 x MIC) and MIC concentrations; for biofilm reduction: supra-MIC concentrations (2x and 4x MIC)
Method: The ability of HG2 and HG4 to disrupt established S. aureus biofilms was measured using a 96-well format as described by ref. [14]. MRSA USA300 cultures grown overnight in Brain Heart Infusion (BHI) broth was resuspended to OD600nm = 0.02 and grown without aeration at 37 °C in 96-well tissue culture plates for an additional 24 h. The planktonic cells were removed by three PBS (phosphate-buffered saline) washes. Thereafter, fresh BHI broth containing peptides HG2 or HG4 at sub- and supra-MIC concentrations (0.5, 1, 2 and 4x MIC) was added to wells containing adherent cells and incubated without shaking for another 24 h. Planktonic cells were again removed by three PBS washes. Biofilms were fixed with methanol for 20 min, stained with 0.4% (w/v) crystal violet solution for 20 min and re-solubilised with 33% (v/v) acetic acid. The optical density of re-solubilised biofilms was measured at 570 nm in a microplate spectrophotometer. The percentage biofilm reduction was calculated using the equation below: Percentagebiofilmreduction(%)=PositiveControl−ODofSample/PositiveControl−NegativeControl The plot showing anti-biofilm activity (% biofilm reduction) was generated using the ‘ggplot2’ package[53] in R (v 4.1.1)[54] with log-linear regression performed using lm() function.

[2] = Peptide-lipid interaction and insertion, lipid monolayer; type: binding, Staphylococcus aureus; settings: MRSA extract; initial surface pressure 30+/-0.5 mN/m
Method: Peptide–lipid interaction was measured using a lipid monolayer formed at the air:water interface with total lipid extracts and pure lipids. Total lipids were extracted from overnight cultures of MRSA or human erythrocytes using the Folch extraction procedure[14],[40]. Extracted total lipids were dried, re-solubilised in chloroform:methanol (2:1, v/v) and stored at −20 °C under nitrogen. […] The variation of the surface pressure caused by peptide insertion was then continuously monitored using a fully automated microtensiometer (µTROUGH SX, Kibron Inc, Finland) until it reached equilibrium (maximal surface pressure increase is usually obtained after 15–25 min). […] In other experiments, the critical pressure of insertion of HG2 or HG4 in the total lipid extracts and pure lipids was measured as follows[14],[56]. Briefly, in these experiments, the initial pressure of the lipid monolayer was set up at different values (between 10 and 30 mN/m) and the variation of pressure caused by the injection of the peptide was measured. […] All experiments were carried out in a controlled atmosphere at 20 ± 1 °C and data were analyzed using the Firmware 2.5 programme (Kibron Inc.). The accuracy of the system under our experimental conditions was determined to be ±0.25 mN/m for surface pressure measurements.

[3] = as above; type: binding, S. aureus; settings: LTA; for Speed of insertion: initial surface pressure 30+/-0.5 mN/m; for Critical pressure of insertion πc: peptide 1 µg/mL
Method: (§2) Peptide–lipid interaction was measured using a lipid monolayer formed at the air:water interface with total lipid extracts and pure lipids. Total lipids were extracted from overnight cultures of MRSA or human erythrocytes using the Folch extraction procedure[14],[40]. Extracted total lipids were dried, re-solubilised in chloroform:methanol (2:1, v/v) and stored at −20 °C under nitrogen. Pure prokaryotic and eukaryotic lipids used were: cardiolipin, POPC (1-palmitoyl-2-oleoyl-glycero-3-phosphocholine), POPE (1-palmitoyl-2-oleoyl-sn-glycero-3-phosphoethanolamine) and POPG (1-palmitoyl-2-oleoyl-sn-glycero-3-phospho-(1’-rac-glycerol) (Avanti Polar Lipid). LTA (Lipoteichoic acid from S. aureus) and LPS (lipopolysaccharide from E. coli) (Invitrogen, UK) were also tested. Pure lipids were reconstituted in chloroform:methanol (2:1 v/v) at 1 mg/ml and stored at −20 °C under nitrogen. For peptide–lipid interaction assay, lipid monolayers at the air:water interface were formed by spreading total lipid extract or pure lipids at the surface of 800 µl of sterile PBS using a 50 µl Hamilton’s syringe. Lipids were added until the surface pressure reached the desired value. After 5–10 min of incubation allowing the evaporation of the solvent and stabilisation of the initial surface pressure, 8 µl of HG2 or HG4 diluted in sterile PBS at 100 µg/ml were injected into the 800 µl sub-phase of PBS under the lipid monolayer (pH 7.4, volume 800 µl) using a 10 µl Hamilton’s syringe giving a final concentration of peptide of 1 µg/ml, as preliminary experiments had shown that this concentration was optimal. The variation of the surface pressure caused by peptide insertion was then continuously monitored using a fully automated microtensiometer (µTROUGH SX, Kibron Inc, Finland) until it reached equilibrium (maximal surface pressure increase is usually obtained after 15–25 min). To reflect physiological situations, the initial surface pressure was fixed at 30 ± 0.5 mN/m in some experiments as this value corresponds to a lipid packing density theoretically equivalent to that of the outer leaflet of the eukaryotic and prokaryotic cell membrane. In other experiments, the critical pressure of insertion of HG2 or HG4 in the total lipid extracts and pure lipids was measured as follows[14],[56]. Briefly, in these experiments, the initial pressure of the lipid monolayer was set up at different values (between 10 and 30 mN/m) and the variation of pressure caused by the injection of the peptide was measured. […] All experiments were carried out in a controlled atmosphere at 20 ± 1 °C and data were analyzed using the Firmware 2.5 programme (Kibron Inc.). The accuracy of the system under our experimental conditions was determined to be ±0.25 mN/m for surface pressure measurements.

[4] = as above; type: binding, E. coli; settings: LPS; for Speed of insertion: initial surface pressure 30+/-0.5 mN/m; for Critical pressure of insertion πc: peptide 1 µg/mL
Method: as §2

Row | SMILES | MIC [1] [µg/mL] | MIC (A. baumannii 515722) [µg/mL] | MIC (A. baumannii 515785) [µg/mL] | MIC (A. baumannii 515908) [µg/mL] | reduction in viable cells (time-kill) (MRSA USA300 cells) [log10 CFU/ml] | time to complete cell death (MRSA USA300 cells) [min] | reduction in biofilm formation (MRSA USA300 biofilms) | biofilm reduction (MRSA USA300 biofilms) [%] | Speed of insertion [2] [mN/m/10 sec] | Speed of insertion [3] [mN/m/10 sec] | Critical pressure of insertion πc [3] [mN/m] | Speed of insertion [4] [mN/m/10 sec] | Critical pressure of insertion πc [4] [mN/m]
1 | CC[C@H](C)[C@H](NC(=O)[C@H](CC(C)C)NC(=O)[C@H](CC(C)C)NC(=O)[C@H](CC(C)C)NC(=O)[C@H](CCCCN)NC(=O)[C@H](CCCCN)NC(=O)[C@@H](N)CCSC)C(=O)N[C@@H](CC(C)C)C(=O)N[C@@H](Cc1ccccc1)C(=O)N[C@H]1CSSC[C@@H](C(=O)N[C@@H](CCCCN)C(=O)N[C@@H](CCCCN)C(=O)N[C@@H](C)C(=O)N2CCC[C@H]2C(N)=O)NC(=O)CNC(=O)[C@H](C)NC(=O)[C@H](CC(C)C)NC(=O)[C@H](C)NC(=O)[C@H](CC(C)C)NC(=O)[C@H](C)NC(=O)[C@H](CC(C)C)NC1=O [HG2] (H-MKKLLLILFCLALALAGCKKAP-NH2; disulfide 10-18; N-terminus assumed) | 128 (≈ 54.3 µM) | 16 (≈ 6.79 µM) | 256 (≈ 109 µM) | 32 (≈ 13.6 µM) | > 3 | ≤ 10 | less than 50% | ≥ 50 | 3.36 | 0.80 | 47.81 | 0.43 | 36.03
2 | CC[C@H](C)[C@H](NC(=O)[C@H](CC(C)C)NC(=O)[C@H](CC(C)C)NC(=O)[C@H](C)NC(=O)CNC(=O)CNC(=O)[C@@H](NC(=O)[C@@H](NC(=O)[C@H](CC(C)C)NC(=O)[C@H](C)NC(=O)[C@H](CC(C)C)NC(=O)CNC(=O)[C@H](CC(C)C)NC(=O)[C@@H](N)C(C)C)[C@@H](C)CC)C(C)C)C(=O)N[C@@H](CCCCN)C(=O)N[C@@H](CCCCN)C(=O)N[C@@H](CCCCN)C(=O)N[C@@H](CCC(N)=O)C(=O)N[C@@H](C)C(=O)N[C@@H](CCCCN)C(=O)N[C@@H](CO)C(N)=O [HG4] (H-VLGLALIVGGALLIKKKQAKS-NH2; N-terminus and C-terminus assumed) | 64 (≈ 30.2 µM) | 32 (≈ 15.1 µM) | 128 (≈ 60.4 µM) | 64 (≈ 30.2 µM) | > 6 | ≤ 10 | less than 50% | ≥ 50 | 1.69 | 0.39 | 40.04 | 0.31 | 34.08
